Data from paper PMC5642580, “Calyxin Y sensitizes cisplatin-sensitive and resistant hepatocellular carcinoma cells to cisplatin through apoptotic and autophagic cell death via SCF βTrCP-mediated eEF2K degradation” (Oncotarget, 2017).

Columns and labels:
[1] = test system: HepG2 cells; experiment: MTT cell viability assay; assay type: cell-based, human; conditions: 24 h
Experimental: HepG2 and HepG2/CDDP cells were plated in 96-well plates at a density of 5000 cells in 200 μl medium per well and incubated overnight. The cells were treated with […] and/or CDDP for 24 h, 48 or 72 h. The cell viability of HepG2 and HepG2/CDDP cells was measured by MTT assay as described previously.

[2] = test system: HepG2/CDDP cells; experiment: MTT cell viability assay; assay type: cell-based, human
Experimental: Human hepatocellular carcinoma HepG2 cells were purchased from Cell Bank of Shanghai Institute of Biochemistry and Cell Biology, Chinese Academy of Sciences (Shanghai, China). mtrDNA sequence analysis was done by the cell bank to confirm the species and cells were tested free from mycoplasma. CDDP-selected drug-resistant HepG2/CDDP cells were derived from HepG2 cells by utilizing serial passage in the presence of increasing CDDP concentrations. Briefly, cells were treated with CDDP (1 μM) for 72 h. The media and dead cells were removed, and cells were allowed to recover for a further 72 h and then were treated with a higher concentration of CDDP. This development period was carried out for approximately 6 months, and finally, we obtained the HepG2/CDDP cells. HepG2/CDDP cells were then continuously maintained in the presence of 20 μM CDDP for a further 3 months to maintain stability. All cells were cultured in DMEM media containing 10% fetal bovine serum and incubated with 100 U/ml penicillin and 100 μg/ml streptomycin (Thermo) at 37 °C under an atmosphere of 95% air and 5% CO2.
HepG2 and HepG2/CDDP cells were plated in 96-well plates at a density of 5000 cells in 200 μl medium per well and incubated overnight. The cells were treated with calyxin Y and/or CDDP for 24 h, 48 or 72 h. The cell viability of HepG2 and HepG2/CDDP cells was measured by MTT assay as described previously.

[3] = test system: HepG2 cells; experiment: Annexin V/7-AAD staining assay (flow cytometry); assay type: cell-based, human; conditions: CDDP 10 µM with or without calyxin Y 20 µM, 24 h
Experimental: HepG2 and HepG2/CDDP cells were plated on 6-well plates and incubated overnight. Next, the cells were treated with […] and/or CDDP for 24 h. Cells in 200 μl of binding buffer were stained with 5 μl of Annexin V-Alexa Fluor 647 ([…] Biotech Co., Ltd., China) and 5 μl of 7-AAD at room temperature for 15 min. The cells were then analyzed by flow cytometry with a BD Accuri C6 flow cytometer (Becton & Dickinson Company, Franklin Lakes, NJ, USA). The cells undergoing apoptosis are Annexin V positive.

[4] = Hematological parameters of nude mice bearing HepG2/CDDP xenograft; assay type: in vivo, BALB/c nu/nu mice; conditions: calyxin Y 20 mg/kg i.p. every other day and/or CDDP 4 mg/kg i.p. once per week, 19 days; mean ± S.D., n = 3
Experimental: (§1) All animal procedures were performed according to comply with the ARRIVE guidelines, the U.K. Animals (Scientific Procedures) Act, 1986 and associated guidelines. The protocol was approved by the Institutional Animal Care and Use Committee at China Pharmaceutical University. Four-week-old BALB/c nu/nu mice (18-22 g) purchased from Shanghai Laboratory Animal Center of Chinese Academy of Sciences (Shanghai, China) were used for in vivo experiments. Animals were housed at a constant room temperature with a 12 h:12 h light/dark cycle and were provided a standard rodent diet and water. HepG2/CDDP cells were harvested and injected subcutaneously into the right flank (1 × 10^7 cells in 150 μl of cold PBS). […] (1) control group, mice were injected intraperitoneally (i.p.) with 10% DMSO + 90% normal saline (n = 6); (2) […] group: mice were injected i.p. with 20 mg/kg […] every other day (n = 6); (3) CDDP group: mice were injected i.p. with 4 mg/kg CDDP once per week (n = 6); (4) […] + CDDP group: mice were injected i.p. with 20 mg/kg […] every other day and 4 mg/kg CDDP once per week (n = 6). The tumor volume was determined by measuring length (l) and width (w) and calculating volume (V = 0.5 × l × w^2) at the indicated time points. At the end of treatment, the animals were sacrificed, and the tumors were removed and weighed for use in histology and protein expression studies. Using a standard saphenous vein blood collection technique, blood was drawn for hematologic and serum biochemistry analyses.

[5] = Hematological biochemical parameters of nude mice bearing HepG2/CDDP xenograft; assay type: in vivo, BALB/c nu/nu mice; conditions: calyxin Y 20 mg/kg i.p. every other day and/or CDDP 4 mg/kg i.p. once per week, 19 days; mean ± S.D., n = 3
Experimental: as §1

[6] = test system: HepG2/CDDP cells; experiment: Western blot of cleaved caspase-3/7/PARP; assay type: cell-based, human; conditions: CDDP 10 µM with or without calyxin Y 20 µM, 24 h
Description: The procedures for Western blotting were described previously.

[7] = test system: eEF2K in HepG2 cells; conditions: calyxin Y 5, 10, 20 µM, 24 h
Experimental: (§2) HepG2 and HepG2/CDDP cells were lysed in western blotting lysis buffer and centrifuged at 12000 g for 10 min. The procedures for Western blotting were described previously.

[8] = test system: eEF2K in HepG2/CDDP cells; conditions: calyxin Y 5, 10, 20 µM, 24 h
Experimental: as §2

[9] = test system: eEF2K mRNA in HepG2 cells; conditions: calyxin Y 5, 10, 20 µM, 24 h
Experimental: (§3) Total RNA samples from HepG2 and HepG2/CDDP cells were extracted using RNAiso Plus reagent following the manufacturer’s protocols. RNA (1 μg) was reverse-transcribed using a ReverTra Ace qPCR RT-Kit (Toyobo Life Science, Osaka, Japan) in a MyCycler PCR system (BioRad Laboratories, Hercules, CA). SYBR Green PCR Master Mix was purchased from Toyobo Life Science. The 2^−ΔΔCT cycle threshold method was used for the calculation of relative differences in mRNA abundance with a LightCycler 480 qPCR System (Roche Molecular Biochemicals, Mannheim, Germany). Data were normalized to the expression of β-Actin. The results of qRT-PCR were expressed as fold-changes. The normalized value of the target mRNA of the control group is arbitrarily presented as 100. The pairs of primer for PCR were listed below: • eEF2K: (sense) 5′-[…]-3′; • eEF2K: (antisense) 5′-[…]-3′. • β-Actin: (sense) 5′-[…] CAATG-3′; • β-Actin: (antisense) 5′-[…]-3′.

[10] = test system: eEF2K mRNA in HepG2/CDDP cells; conditions: calyxin Y 5, 10, 20 µM, 24 h
Experimental: as §3

Row | Hematocrit [4] [%] | Hemoglobin [4] [g/L] | Lymphocytes [4] | Mean corpuscular hemoglobin [4] [pg] | Mean corpuscular volume [4] [fL] | Platelet counts [4] | Red blood cells [4] | White blood cells [4] | Alanine aminotransferase [5] [U/L] | Alkaline phosphatase [5] [U/L] | Aspartate aminotransferase [5] [U/L] | Compound | other results
1 | 44.3 ± 2.8 | 126.3 ± 4.7 | 8.9 ± 1.9 10^9/L | 13.4 ± 0.29 | 47.7 ± 3.5 | 562.1 ± 19.2 10^9/L | 9.6 ± 0.67 10^12/L | 9.9 ± 0.39 10^9/L | 40.2 ± 1.2 | 125.4 ± 0.91 | 158.5 ± 5.1 | [NH2][Pt]([NH2])([Cl])[Cl] [CDDP, cisplatin] | IC50 ([1]; MTT): 16.7 µM; IC50 ([2]; HepG2/CDDP cells, 24 h, MTT): 95.4 µM; resistance index ([2]; HepG2/CDDP vs HepG2, IC50 at 24 h): ~6 fold; apoptosis (AV+ cells) [3]: 31%; cleavage of caspase-7, caspase-3 and PARP [6]: did not cause the cleavage
2 | 44.1 ± 1.4 | 138.4 ± 7.0 | 18.5 ± 1.8 10^9/L | 14.5 ± 0.13 | 47.3 ± 3.3 | 588.5 ± 80.5 10^9/L | 11.0 ± 0.27 10^12/L | 15.2 ± 2.2 10^9/L | 37.5 ± 1.4 | 115.4 ± 2.7 | 129.3 ± 3.5 | Calyxin Y | cell viability ([1]; calyxin Y 10, 20, 30, 40 µM): concentration-dependent manner; cell viability ([2]; HepG2/CDDP cells, calyxin Y 10, 20, 30, 40 µM, 24 h): inhibited the viability of HepG2/CDDP cells as much as it did that of HepG2 cells in a concentration-dependent manner; eEF2K expression [7]: reduced eEF2K expression in a dose-dependent manner; eEF2K expression [8]: reduced eEF2K expression in a dose-dependent manner; eEF2K mRNA levels [9]: not significantly changed; eEF2K mRNA levels [10]: not significantly changed
